Structures can show the parent of a compound that is named as a salt. Where two headings read alike, the source gives them in different places. Where a SMILES comes first, the peptide text is derived from it. [ ]: non-standard residue; d: D form. The star is where a group is joined. Dolaproine = CO[C@@H]([C@@H]1CCCN1)[C@@H](C)C(=O)O; Dil = CC[C@H](C)[C@H](NC)[C@@H](CC(=O)O)OC; NMe2Val = CC(C)[C@@H](C(=O)*)N(C)C
How the values were obtained:
[1] = target: T1, SARS-CoV-2 PLpro (nsp3 1564–1878) (Severe acute respiratory syndrome coronavirus 2, UniProt P0DTD1); experiment: biochemical; parameters: FRET-quenched peptide (Pro3) cleavage by PLpro, 10 min pre-incubation, slope over 20 min, normalised to no-compound control; details: low concentration screen, read-out: % of control remaining
[2] = target: T1, SARS-CoV-2 PLpro (nsp3 1564–1878); experiment: biochemical; parameters: FRET-quenched peptide (Pro3) cleavage by PLpro, 10 min pre-incubation, slope over 20 min, normalised to no-compound control; details: high concentration screen, read-out: % of control remaining

CC[C@@H]1/C=C(\C)C[C@H](C)C[C@H](OC)[C@H]2O[C@@](O)(C(=O)C(=O)N3CCCC[C@H]3C(=O)O[C@H](/C(C)=C/[C@@H]3CC[C@@H](O)[C@H](OC)C3)[C@H](C)[C@@H](O)CC1=O)[C@H](C)C[C@@H]2OC [Ascomycin]
remaining activity at 1.25 µM ([1]; Well no.=6638): 102%
remaining activity at 1.25 µM ([1]; Well no.=7410): 98%
remaining activity at 3.75 µM ([2]; Well no.=6638): 98.9%
remaining activity at 3.75 µM ([2]; Well no.=7410): 96.8%

O=C1O[C@H]([C@@H](O)CO)C(O)=C1O [Ascorbic acid]
remaining activity at 1.25 µM ([1]; Well no.=4039): 99.8%
remaining activity at 3.75 µM ([2]; Well no.=4039): 99.5%

CCCCCCCCCCCCCCCC(=O)OC[C@H](O)[C@H]1OC(=O)C(O)=C1O [Ascorbyl palmitate]
remaining activity at 1.25 µM ([1]; Well no.=4041): 102%
remaining activity at 3.75 µM ([2]; Well no.=4041): 105%

C[C@H]1[C@H](C)CC[C@]2(C(=O)O)CC[C@]3(C)C(=CC[C@@H]4[C@@]5(C)C[C@@H](O)[C@H](O)[C@@](C)(CO)[C@@H]5CC[C@]43C)[C@H]12 [Asiatic acid]
remaining activity at 1.25 µM ([1]; Well no.=3509): 100%
remaining activity at 3.75 µM ([2]; Well no.=3509): 103%

COC(=O)[C@H](Cc1ccccc1)NC(=O)[C@@H](N)CC(=O)O [Aspartame] (H-Asp-Phe-OMe)
remaining activity at 1.25 µM ([1]; Well no.=5048): 100%
remaining activity at 1.25 µM ([1]; Well no.=7302): 102%
remaining activity at 3.75 µM ([2]; Well no.=5048): 101%
remaining activity at 3.75 µM ([2]; Well no.=7302): 102%

CC1=C(/C=C/C(C)=C/C=C/C(C)=C/C=C/C=C(C)/C=C/C=C(C)/C=C/C2=C(C)C(=O)[C@@H](O)CC2(C)C)C(C)(C)C[C@H](O)C1=O [Astaxanthin]
remaining activity at 1.25 µM ([1]; Well no.=296): 93.3%
remaining activity at 3.75 µM ([2]; Well no.=296): 92.4%

COc1ccc(CCN2CCC(Nc3nc4ccccc4n3Cc3ccc(F)cc3)CC2)cc1 [Astemizole]
remaining activity at 1.25 µM ([1]; Well no.=2054): 102%
remaining activity at 3.75 µM ([2]; Well no.=2054): 102%

C[C@@H]1O[C@@H](O[C@H]2C(=O)c3c(O)cc(O)cc3O[C@@H]2c2ccc(O)c(O)c2)[C@H](O)[C@H](O)[C@H]1O [Astilbin]
remaining activity at 1.25 µM ([1]; Well no.=6924): 114%
remaining activity at 3.75 µM ([2]; Well no.=6924): 106%

CC(C)(O)[C@H]1CC[C@@](C)([C@H]2[C@@H](O)C[C@@]3(C)[C@@H]4C[C@H](O[C@@H]5O[C@H](CO)[C@@H](O)[C@H](O)[C@H]5O)[C@H]5C(C)(C)[C@@H](O[C@@H]6OC[C@@H](O)[C@H](O)[C@H]6O)CC[C@@]56C[C@@]46CC[C@]23C)O1 [Astragaloside A]
remaining activity at 1.25 µM ([1]; Well no.=5238): 98.6%
remaining activity at 3.75 µM ([2]; Well no.=5238): 102%

CN(C)C(N)=NCCC[C@H](N)C(=O)O [Asymmetric dimethylarginine]
remaining activity at 1.25 µM ([1]; Well no.=7119): 103%
remaining activity at 3.75 µM ([2]; Well no.=7119): 102%

COC(=O)N[C@H](C(=O)N[C@@H](Cc1ccccc1)[C@@H](O)CN(Cc1ccc(-c2ccccn2)cc1)NC(=O)[C@@H](NC(=O)OC)C(C)(C)C)C(C)(C)C [Atazanavir sulfate]
remaining activity at 1.25 µM ([1]; Well no.=5245): 96.5%
remaining activity at 3.75 µM ([2]; Well no.=5245): 101%

COC(=O)N[C@H](C(=O)N[C@@H](Cc1ccccc1)[C@@H](O)CN(Cc1ccc(-c2ccccn2)cc1)NC(=O)[C@@H](NC(=O)OC)C(C)(C)C)C(C)(C)C [Atazanavir]
remaining activity at 1.25 µM ([1]; Well no.=1918): 97.5%
remaining activity at 3.75 µM ([2]; Well no.=1918): 95.7%

CC(C)NCC(O)COc1ccc(CC(N)=O)cc1 (stereo not shown) [Atenolol]
remaining activity at 1.25 µM ([1]; Well no.=2131): 103%
remaining activity at 1.25 µM ([1]; Well no.=7671): 97.3%
remaining activity at 3.75 µM ([2]; Well no.=2131): 104%
remaining activity at 3.75 µM ([2]; Well no.=7671): 98.5%

CN(C)C(=O)Nc1cccc(-c2ccc(N(C)C)cc2)c1 [Atglistatin]
remaining activity at 1.25 µM ([1]; Well no.=5396): 98.8%
remaining activity at 3.75 µM ([2]; Well no.=5396): 81.1%

CCC1(c2c[nH]cn2)Cc2ccccc2C1 [Atipamezole (hydrochloride)]
remaining activity at 1.25 µM ([1]; Well no.=7481): 102%
remaining activity at 3.75 µM ([2]; Well no.=7481): 98.7%

CCC1(c2c[nH]cn2)Cc2ccccc2C1 [Atipamezole]
remaining activity at 1.25 µM ([1]; Well no.=6663): 101%
remaining activity at 3.75 µM ([2]; Well no.=6663): 101%

CC(C)c1c(C(=O)Nc2ccccc2)c(-c2ccccc2)c(-c2ccc(F)cc2)n1CC[C@@H](O)C[C@@H](O)CC(=O)O [Atorvastatin Calcium]
remaining activity at 1.25 µM ([1]; Well no.=8096): 95.7%
remaining activity at 3.75 µM ([2]; Well no.=8096): 98.2%

O=C1C(O)=C([C@H]2CC[C@H](c3ccc(Cl)cc3)CC2)C(=O)c2ccccc21 [Atovaquone]
remaining activity at 1.25 µM ([1]; Well no.=1838): 92.3%
remaining activity at 3.75 µM ([2]; Well no.=1838): 94.9%

COc1ccc(C[C@@H]2c3cc(OC)c(OC)cc3CC[N@+]2(C)CCC(=O)OCCCCCOC(=O)CC[N@@+]2(C)CCc3cc(OC)c(OC)cc3[C@H]2Cc2ccc(OC)c(OC)c2)cc1OC [Atracurium besylate]
remaining activity at 1.25 µM ([1]; Well no.=2133): 92.8%
remaining activity at 3.75 µM ([2]; Well no.=2133): 98.2%

CN1[C@@H]2CC[C@H]1C[C@@H](OC(=O)C(CO)c1ccccc1)C2 (stereo partly shown) [Atropine (sulfate monohydrate)]
remaining activity at 1.25 µM ([1]; Well no.=7677): 93.8%
remaining activity at 3.75 µM ([2]; Well no.=7677): 94.5%

C[N+]1(C)[C@@H]2CC[C@H]1C[C@@H](OC(=O)C(CO)c1ccccc1)C2 (stereo partly shown) [Atropine methyl bromide]
remaining activity at 1.25 µM ([1]; Well no.=117): 100%
remaining activity at 3.75 µM ([2]; Well no.=117): 96.6%

C[N+]1(C)[C@@H]2CC[C@H]1C[C@@H](OC(=O)C(CO)c1ccccc1)C2 (stereo partly shown) [Atropine methyl nitrate]
remaining activity at 1.25 µM ([1]; Well no.=245): 99.7%
remaining activity at 3.75 µM ([2]; Well no.=245): 100%

CN1[C@@H]2CC[C@H]1C[C@@H](OC(=O)C(CO)c1ccccc1)C2 (stereo partly shown) [Atropine sulfate]
remaining activity at 1.25 µM ([1]; Well no.=197): 99.5%
remaining activity at 1.25 µM ([1]; Well no.=3238): 102%
remaining activity at 3.75 µM ([2]; Well no.=3238): 102%

OCC1=C[C@@H](O)[C@@H]2C=CO[C@@H](O[C@@H]3O[C@H](CO)[C@@H](O)[C@H](O)[C@H]3O)[C@H]12 [Aucubin]
remaining activity at 1.25 µM ([1]; Well no.=3162): 99.3%
remaining activity at 3.75 µM ([2]; Well no.=3162): 97.6%

CC(C)=CCC/C(C)=C/COc1ccc2ccc(=O)oc2c1 [Auraptene]
remaining activity at 1.25 µM ([1]; Well no.=3511): 101%
remaining activity at 3.75 µM ([2]; Well no.=3511): 104%

O=C(O)C1=CC(=C(c2ccc(O)c(C(=O)O)c2)c2ccc(O)c(C(=O)O)c2)C=CC1=O [Aurintricarboxylic acid]
remaining activity at 1.25 µM ([1]; Well no.=249): 97.6%
remaining activity at 3.75 µM ([2]; Well no.=249): 109%

CC[C@H](C)[C@@H]([C@@H](CC(=O)N1CCC[C@H]1[C@H](OC)[C@@H](C)C(=O)N[C@@H](Cc1ccccc1)C(=O)O)OC)N(C)C(=O)[C@@H](NC(=O)[C@H](C(C)C)N(C)C)C(C)C [Auristatin F] (NMe2Val-V[Dil][Dolaproine]F-OH)
remaining activity at 1.25 µM ([1]; Well no.=8602): 106%
remaining activity at 3.75 µM ([2]; Well no.=8602): 100%

CCN1CCN(C(=O)Cc2ccc(Nc3ncc(F)c(Nc4ccc(C(=O)Nc5ccccc5Cl)cc4)n3)cc2)CC1 [Aurora A Inhibitor I]
remaining activity at 1.25 µM ([1]; Well no.=5241): 95.1%
remaining activity at 3.75 µM ([2]; Well no.=5241): 102%

O=C(Nc1cccc(Nc2nccc(Nc3cccc(C(F)(F)F)c3)n2)c1)C1CC1 [Aurora Kinase Inhibitor III]
remaining activity at 1.25 µM ([1]; Well no.=2326): 105%
remaining activity at 1.25 µM ([1]; Well no.=2659): 95.7%
remaining activity at 3.75 µM ([2]; Well no.=2326): 102%
remaining activity at 3.75 µM ([2]; Well no.=2659): 94%

From PMC8286840, “Identifying SARS-CoV-2 antiviral compounds by screening for small molecule inhibitors of Nsp3 papain-like protease” (Biochemical Journal, 2021)
